According to US20050244413A1, “Compositions and methods for treating cancer using cytotoxic CD44 antibody immunoconjugates and chemotherapeutic agents” (priority 2002, published 2005):
pKd: −log10 of the molar value. Several values for one entry are separate records, joined by “and”; a condition that tells them apart may be missing. Equal entries are not always repeated. Where two headings read alike, the source gives them in different places.

Experiments:
FaDuDD tumors [1] = experiment: BIWI 1 combination with cisplatin in nude mice xenografted with FaDuDD tumors; format: in vivo, mouse; conditions: cisplatin 4 mg/kg i.v. q7dx4
Experimental: (§1) The antibody solution was injected into the tail vein with an injection volume of 200 μl for a 25 g mouse. In the control groups without BIWI 1 treatment animals were injected i.v. with PBS. […] The solution was injected into the tail vein with an injection volume of 200 μl for a 25 g mouse. […] The solution was injected into the tail vein with an injection volume of 200 μl for a 25 g mouse.
(§2) Tumor sizes and body weights were recorded 2-3 times per week. Tumor sizes were measured with a calliper (length and width) and the volume was calculated according to the following formula: volume (length)×(width)^2×([…]). The tolerability of the treatment was monitored by measuring mouse weight during the whole observation period. […] For calculation of the mean tumor volumes per group, the last values of tumor size for individual animals were carried forward in case that these animals had to be sacrificed due to large tumor burden before the whole group was terminated. In addition to the absolute tumor volume in mm^3, the relative tumor volumes (RTV) were calculated as follows:
(§3) RTV=(tumor volume at day x)/(tumor volume at start of treatment)×100 For the evaluation of treatment efficacy the following parameters were calculated: • T/C (%)=(mean RTV of treated group)/(mean RTV of control group)×100 • T4T (tumor quadrupling time)=time until the mean RTV reaches 400% • GDF4 (growth delay factor)=T4T treated/T4T control.
(§4) In addition, for some experiments, the mean time for tumors to reach 8 times (T8T) their initial sizes were also calculated. The growth delay factor (GDF8) was then calculated accordingly. Percentages of mean relative tumor volumes of treated versus control groups (T/C) were calculated on the days indicated. For statistical evaluation of combination therapies exact Wilcoxon tests were used. Tolerability was assessed by monitoring body weight changes.
A different set of experiments was done with cisplatin. In a pilot experiment, a dose of 4 mg/kg cisplatin administered i.v. four times in weekly intervals was determined to be non-curative in this model, and also represents the maximum tolerated dose in the mouse strain used. This dose of cisplatin was combined with BIWI 1 at the non-curative doses of 200 μg/kg DM1 and 300 Ag/kg DM1 already used in the previous experiment. […] In the latter combination group 2/8 complete tumor regressions could be observed. […] Treatment was well tolerated in all groups.

[2] = Tolerability in FaDu combination experiments (body weight); format: in vivo, mouse
Experimental: as §2, with “follows: […]” for “follows:”
as §4

cells = conditions: free DM1, literature background; cited from earlier work
FaDuDD tumors [3] = experiment: BIWI 1 combination with docetaxel in nude mice xenografted with FaDuDD tumors; format: in vivo, mouse; conditions: docetaxel 3 mg/kg i.v. q7dx4
Experimental: as §1, §2, §3, §4
To assess the efficacy of BIWI 1 in combination with the taxane docetaxel (Taxotere), non-curative doses of both drugs were tested as single agents or in combination in nude mice xenografted with FADuDD tumors. In pilot experiments a dose of 3 mg/kg docetaxel (q7dx4) was determined to be non-curative in this model. BIWI 1 was used at the non-curative dose of 200 μg/kg DM 1 and at a somewhat higher dose (300 μg/kg DM1).
The effect was somewhat more pronounced in the two BIWI 1 monotherapy treatment groups with T/C 41-30% and GDF4: 2.8-4.4. Complete tumor regression could be observed in 1/8 cases with the higher BIWI 1 dose. […] Treatment was well tolerated in all groups, except for a slight unexplained weight loss (approx. −5%) in the docetaxel monotherapy group.

MDA-MB-453 tumors [4] = tested on: MDA-MB-453 tumors
Experimental: Experiments were performed using nude mice xenografted subcutaneously with the human breast carcinoma cell line MDA-MBA53. […] The efficacy of these combinations was compared to those of the respective monotherapies by i) analysing the tumor volumes over time and ii) by determining the time for tumors to reach a certain size (tumor growth delay).
The dilutions were prepared freshly for each application or stored at +4° C. during the whole treatment period. […] 200 μl of solutions with different concentrations were injected into the tail vein. Docetaxel (Taxotere®, Aventis, 10 mg/ml) was diluted in 0.9% NaCl. 200 μl of solutions with different concentrations were injected into the tail vein.
Briefly, 1×10^7 MDA-MB-453 cells (ATCC No. HTB-131) were injected into the mammary fat pad of female NMRI nu/nu mice. After reaching a volume of approximately 1000 mm^3 tumors were excised, cut into 4×4 mm pieces and passaged further subcutaneously. Tumor fragments were cryoconserved in 90% RPMI 1640/10% dimethylsulfoxide (slow freezing process down to −80° C., storage in liquid nitrogen). For further passaging, frozen tumor fragments were thawed, washed 3 times in PBS and implanted subcutaneously into the right and left flanks of a 4-5 female NMRI nu/nu mice. Tumors of these mice were then used to prepare the animals for a therapy experiment. Tumors were excised with a size of approximately 10 mm in diameter, cut into 2×2 mm pieces and implanted subcutaneously into the right flank of 6-8 week old female NMRI nu/nu mice. Approximately twice as many animals as needed for the experiment were prepared. When tumors reached a size of 5-10 mm in diameter (10-14 days after implantation), animals were randomised and treatments were started. Animals were obtained from Harlan (Germany) or M&B (Denmark). Tumor sizes and body weights were recorded as described in Section 2.7.

MDA-MB-453 tumors [5] = experiment: BIWI 1 combination with doxorubicin in nude mice xenografted with MDA-MB-453 tumors; format: in vivo, mouse; conditions: doxorubicin 6 mg/kg i.v. q7dx4
Experimental: Similar experiments as outlined under Section 2.6 were undertaken in a human breast carcinoma xenograft model. Experiments were performed using nude mice xenografted subcutaneously with the human breast carcinoma cell line MDA-MBA53. […] The efficacy of these combinations was compared to those of the respective monotherapies by i) analysing the tumor volumes over time and ii) by determining the time for tumors to reach a certain size (tumor growth delay).
The dilutions were prepared freshly for each application or stored at +4° C. during the whole treatment period. […] Doxorubicin (Doxorubicin “Ebewe”®, 2 mg/ml) was diluted in PBS. 200 μl of solutions with different concentrations were injected into the tail vein. Docetaxel (Taxotere®, Aventis, 10 mg/ml) was diluted in 0.9% NaCl. 200 μl of solutions with different concentrations were injected into the tail vein.
The xenograft model was handled slightly different as outlined under Section 2.1. Briefly, 1×10^7 MDA-MB-453 cells (ATCC No. HTB-131) were injected into the mammary fat pad of female NMRI nu/nu mice. After reaching a volume of approximately 1000 mm^3 tumors were excised, cut into 4×4 mm pieces and passaged further subcutaneously. Tumor fragments were cryoconserved in 90% RPMI 1640/10% dimethylsulfoxide (slow freezing process down to −80° C., storage in liquid nitrogen). For further passaging, frozen tumor fragments were thawed, washed 3 times in PBS and implanted subcutaneously into the right and left flanks of a 4-5 female NMRI nu/nu mice. Tumors of these mice were then used to prepare the animals for a therapy experiment. Tumors were excised with a size of approximately 10 mm in diameter, cut into 2×2 mm pieces and implanted subcutaneously into the right flank of 6-8 week old female NMRI nu/nu mice. Approximately twice as many animals as needed for the experiment were prepared. When tumors reached a size of 5-10 mm in diameter (10-14 days after implantation), animals were randomised and treatments were started. Animals were obtained from Harlan (Germany) or M&B (Denmark). Tumor sizes and body weights were recorded as described in Section 2.7.

[6] = Tolerability in MDA-MB-453 combination experiments (body weight); format: in vivo, mouse; conditions: doxorubicin 6 mg/kg monotherapy group; combination group with BIWI 1 75 μg/kg DM1; 6 animals per group
Experimental: as §2, with “follows: […]” for “follows:”
as §4

FaDu tumors [7] = experiment: BIWI 1 combination therapy with paclitaxel in the FaDu xenograft model; format: in vivo, mouse; conditions: or both
Experimental: (§5) In vivo anti-tumor efficacy of BIWI 1 was tested in three nude mouse xenograft models applying antigen-positive human tumors: A431 (ATCC # CRL 1555; epidermoid carcinoma of the vulva), FaDu (ATCC # HTB 43; squamous cell carcinoma of the pharynx), and MDA-MB 453 (ATCC # HTB-131; breast carcinoma). The cells were received from ATCC and cultured in RPMI1640 medium containing 10% fetal calf serum and supplements. 1×10^6 tumors cells were transplanted subcutaneously into the right flank of 6 week old female NMRI-nu/nu mice. Tumor growth was monitored by measuring tumor size. A tumor response was rated as complete response when the tumor completely disappeared at any time after start of treatment. The response was rated as partial response when the tumor volume decreased after treatment but thereafter started regrowing. The tolerability of the treatment was monitored by measuring mouse weight during the observation period.
Mice were randomised into the following treatment groups (treatment/initial mean tumor volume/tumor volume range/number of mice): • Group 1: Control (PBS)/197 mm^3/65-402 mm^3/8 mice • Group 2: Paclitaxel/182 mm^3 /65%-302 mm^3/8 mice • Group 3: BIWI 1/208 mm^3 /65-382 mm^3/8 mice • Group 4: BIWI 1+paclitaxel/159 mm^3 /79-335 mm^3 /7 mice
Treatment consisted either of five i.v. injections of BIWI 1 (7 mg/kg corresponding to 100 μg/kg DM1) at day 1, 3, 5, 8, 10, or of six i.p. injections of paclitaxel (10 mg/kg) at day 2, 4, 6, 9, 11, 13, respectively, or a combination thereof. Control animals were treated with PBS.
One tumor completely dissappeared during treatment and the animal remained tumor free until the end of the observation period.

[8] = tested on: breast carcinoma xenografts; experiment: BIWI 1 (five daily doses) combination with paclitaxel in human breast carcinoma xenograft model; format: in vivo, mouse
Experimental: BIWI was given i.v. into the tail vein at doses of 50 μg DM1/kg/day or 100 μg DM1/kg/day for five consecutive days. Paclitaxel (Taxol®) was given i.v. at 20 or 10 mg/kg, doxorubicin (Adriamycin®) at 6 or 4 mg/kg only on the first day of the treatment period, in each case 4 hours after BIWI 1 treatment. In mice bearing breast carcinoma xenografts with a volume of approximately 100 mm3.

[9] = tested on: antigen-positive FaDu cells; experiment: In vitro binding to FaDu cells (FACS); conditions: 1 hour on ice, FITC-labeled anti-human IgG, read-out: apparent KD
Experimental: The binding of BIWA 4 antibody and BIWI 1 conjugate to antigen-positive FaDu cells was determined. Cells ([…]) were incubated in 96-well plates with varying concentrations of antibody or conjugate on ice for 1 hour. The test article was washed from the plate and FITC-labeled anti-human IgG was added and the incubation on ice was continued in the dark for 1 hour. After washing, the cells were fixed with 1% paraformaldehyde and analyzed on a fluorescence activated cell sorter (FACS).

A431 tumors = experiment: BIWI 1 monotherapy in A431 xenografted nude mice; format: in vivo, mouse; conditions: 21 mg/kg/d control antibody i.v., five consecutive days
Experimental: as §5
Mice were randomised into the following treatment groups (treatment/initial mean tumor volume/tumor volume range/number of mice): • Group 1: Control (PBS)/185±217 mm^3/19-424 mm^3/5 mice. • Group 2: BIWA 4 (21 mg/kg/d)/133±115 mm^3/42-302 mm^3/5 mice. • Group 3: BIWI 1 (2.1 mg/kg/d)/107±63 mm^3/42-205 mm^3′/5 mice. • Group 4: BIWI 1 (7 mg/kg/d)/132±73 mm^3/42-205 mm^3/5 mice. • Group 5: BIWI 1 (21 mg/kg/d)/107±[…]/42-205 mm^3/5 mice.
(§6) Groups of 5 mice were treated with 2.1 mg/kg/d BIWI 1, 7 mg/kg/d BIWI 1, 21 mg/kg/d BIWI 1, and 21 mg/kg/d control antibody, respectively. Treatment consisted of i.v. injections of BIWI 1 given on five consecutive days, starting at day 1.

FaDu tumors [10] = experiment: BIWI 1 monotherapy in FaDu xenografted nude mice; format: in vivo, mouse; conditions: 21 mg/kg/d control antibody i.v., five consecutive days
Experimental: as §5
Mice were randomised into the following treatment groups (treatment/initial mean tumor volume/tumor volume range/number of mice): • Group 1: Control (PBS)/142±82 mm^3/34-268 mm^3 /8 mice. • Group 2: BIWA 4 (21 mg/kg/d)/134±86 mm^3/42-268 mm^3/6 mice. • Group 3: BIWI 1 (2.1 mg/kg/d) 149±96 mm^3/50-268 mm^3/6 mice. • Group 4: BIWI 1 (7 mg/kg/d)/132±97 mm^3 42-268 mm^3/6 mice. • Group 5: BIWI 1 (21 mg/kg/d)/129±74 mm^3/50-231 mm^3/6 mice.
as §6, with “6” for “5”, “1. […] The remaining 2 tumors grew similar to untreated control tumors.” for “1.”

[11] = BIWI 1 7 mg/kg i.v. x5, paclitaxel 10 mg/kg i.p. x6

## N.N.[Cl][Pt][Cl] [Cisplatin, reference compound]
FaDuDD tumors [1]
  GDF4: 1.1
  T4T: 11.3 days
  T/C (d 19): 100%
[2]; cisplatin i.v. four times in weekly intervals, pilot experiment
  maximum tolerated dose in the mouse strain used: 4 mg/kg

## COc1cc2cc(c1Cl)N(C)C(=O)C[C@H](OC(=O)[C@H](C)N(C)C(=O)CCS)[C@]1(C)O[C@H]1[C@H](C)[C@@H]1C[C@@](O)(NC(=O)O1)[C@H](OC)/C=C/C=C(\C)C2 [DM1, N^2′-deacetyl-N^2′-(3-mercapto-1-oxopropyl)-Maytansine]
cells
  concentration toxic to cells in vitro: about 10^−10 M

## CC(=O)O[C@@]12CO[C@@H]1C[C@H](O)[C@@]1(C)C(=O)[C@H](O)C3=C(C)[C@@H](OC(=O)[C@H](O)[C@@H](NC(=O)OC(C)(C)C)c4ccccc4)C[C@@](O)([C@@H](OC(=O)c4ccccc4)[C@H]21)C3(C)C [Docetaxel]
FaDuDD tumors [3]
  GDF4: 1.9
  T4T: 13.5 days
  T/C (d 16): 56%
[2]; docetaxel monotherapy group 3 mg/kg q7dx4, FaDuDD xenografted mice
  weight loss: approx. −5%
MDA-MB-453 tumors [4]; docetaxel 3 mg/kg i.v. q7dx4
  GDF4: 0.8
  T4T: 9.0 days
  T/C (d 16): 102%
MDA-MB-453 tumors [4]; docetaxel 6 mg/kg i.v. q7dx4
  GDF4: 1.3
  T4T: 14 days and 13.9 days
  T/C (d 16): 71%

## COc1cccc2c1C(=O)c1c(O)c3c(c(O)c1C2=O)C[C@@](O)(C(=O)CO)C[C@@H]3O[C@H]1C[C@H](N)[C@H](O)[C@H](C)O1 [Doxorubicin, reference compound]
MDA-MB-453 tumors [5]
  GDF4: 1.0
  T/C (d13): 66%
[6]
  animals with transient weight loss of more than 12%: two

## CC(=O)O[C@H]1C(=O)[C@@]2(C)[C@H]([C@H](OC(=O)c3ccccc3)[C@]3(O)C[C@H](OC(=O)[C@H](O)[C@@H](NC(=O)c4ccccc4)c4ccccc4)C(C)=C1C3(C)C)[C@]1(OC(C)=O)CO[C@@H]1C[C@@H]2O [Paclitaxel, reference compound]
FaDu tumors [7]; BIWI 1 7 mg/kg i.v. day 1,3,5,8,10, paclitaxel 10 mg/kg i.p. day 2,4,6,9,11,13
  Initial Tumor Doubling Time: 7 days
FaDu tumors [7]; [11]
  Complete Regression: 0/8
  Growth Delay Factor: 0.75
[8]; paclitaxel monotherapy 10 mg/kg i.v. on first day
  T/C (median relative tumor volumes of treated versus control groups): 50%
[8]; paclitaxel monotherapy 20 mg/kg i.v. on first day
  T/C (median relative tumor volumes of treated versus control groups): 13%

## BIWA 4
[9]
  pKd: 9.00
A431 tumors
  anti-tumor effect: no anti-tumor effect
  tumor volume doubling time: approximately 5 days
FaDu tumors [10]
  anti-tumor effect: no anti-tumor effect
  tumor volume doubling time: approximately 5 days
